US8026257B2 (Bristol-Myers Squibb Company, priority 2007, dated 2011)

Columns and labels:
[1] = background statement, literature reports; cited from earlier work
[2] = target: T1, NK-1 (Homo sapiens, UniProt P25103); assay: NK1 radioligand binding assay ([125I]Substance P, U373 membranes); conditions: U373 cell membranes, 200 pM [125I]Substance P, 1 hour at room temperature
T1 construct: 30 ul/well of a 2×U373 membrane preparation
In short: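 U373 cell membranes incubated 1 h at room temperature with [125I]Substance P at its Kd (added as 400 pM 2× solution) in Tris-Cl pH 7.5 with MgCl2, BSA, bacitracin and protease inhibitors. Bound radioligand collected on PEI-treated GF/B filters and counted. IC50 from four-parameter fit of triplicates; L-733,060 defined 100% inhibition.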

[3] = target: hSERT (Homo sapiens, UniProt P31645); assay: SERT radioligand binding assay ([125I]RTI-55, HEK-hSERT membranes); conditions: HEK-293 hSERT membranes, 260 pM [125I]RTI-55, 1 hour at room temperature; read-out: SERT IC50
Sequence of hSERT (P31645 whole entry): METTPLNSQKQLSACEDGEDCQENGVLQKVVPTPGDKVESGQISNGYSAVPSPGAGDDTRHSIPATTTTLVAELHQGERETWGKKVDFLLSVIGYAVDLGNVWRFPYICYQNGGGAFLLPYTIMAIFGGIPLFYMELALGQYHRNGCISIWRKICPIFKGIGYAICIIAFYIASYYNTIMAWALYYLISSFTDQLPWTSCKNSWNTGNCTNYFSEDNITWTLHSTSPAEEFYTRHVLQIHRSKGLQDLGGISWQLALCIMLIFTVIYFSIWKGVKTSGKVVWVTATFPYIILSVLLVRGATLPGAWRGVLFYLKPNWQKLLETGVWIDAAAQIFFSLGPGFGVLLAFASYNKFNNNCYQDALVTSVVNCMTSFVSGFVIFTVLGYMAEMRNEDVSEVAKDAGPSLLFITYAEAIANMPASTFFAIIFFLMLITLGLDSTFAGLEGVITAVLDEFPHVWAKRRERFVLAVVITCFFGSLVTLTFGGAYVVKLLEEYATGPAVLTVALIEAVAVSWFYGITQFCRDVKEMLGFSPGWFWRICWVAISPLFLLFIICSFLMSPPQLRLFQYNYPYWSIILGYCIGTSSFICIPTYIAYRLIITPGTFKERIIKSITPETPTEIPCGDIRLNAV
In short: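 Crude membranes from HEK-293 cells expressing hSERT (15 ug/ml, 2× stock) were incubated 1 hour at room temperature with [125I]RTI-55 (520 pM, 2× stock; at Kd) in pH 7.5 Tris, 120 mM NaCl, 5 mM KCl. Bound ligand was collected by GF/B filtration and scintillation counted. IC50 came from four-parameter fit, fluoxetine defining 100% inhibition.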

T1 sequence (P25103 whole entry): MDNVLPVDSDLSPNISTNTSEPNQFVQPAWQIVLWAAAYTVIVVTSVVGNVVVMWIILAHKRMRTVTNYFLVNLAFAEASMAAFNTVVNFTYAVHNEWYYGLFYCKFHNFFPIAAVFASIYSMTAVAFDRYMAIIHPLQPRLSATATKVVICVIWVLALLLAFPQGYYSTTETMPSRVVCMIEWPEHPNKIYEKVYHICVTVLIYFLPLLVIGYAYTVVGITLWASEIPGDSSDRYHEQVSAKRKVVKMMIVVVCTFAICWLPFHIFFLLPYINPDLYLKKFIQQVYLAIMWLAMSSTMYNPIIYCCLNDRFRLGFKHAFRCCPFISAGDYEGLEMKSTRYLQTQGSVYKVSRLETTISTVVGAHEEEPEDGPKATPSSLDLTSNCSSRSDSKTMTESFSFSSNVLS

## COc1ccc(OC(F)(F)F)cc1CN[C@H]1CCCN[C@H]1c1ccccc1 [CP-122,721]
[1]
  antidepressant activity: Robust antidepressant activity

## C[C@@H](OCC1(c2ccc(F)cc2)CCN(C)CC1)c1cc(Cl)cc2cnn(CC3CC3)c12 [Example 106, (R)-5-chloro-1-(cyclopropylmethyl)-7-(1-((4-(4-fluorophenyl)-1methylpiperidin-4-yl)methoxy)ethyl)-1H-indazole]
[2]
  IC50: 0.01 to 100 nM
[3]
  IC50: 0.01 to 100 nM

## C[C@@H](OCC1(c2ccc(F)cc2)CCN(C)CC1)c1cc(Cl)cc2cn(CC#N)nc12 [Example 107, (R)-2-(5-chloro-7-(1-((4-(4-fluorophenyl)-1-methylpiperidine-4-yl)methoxy)ethyl)-2H-indazole-2-yl)acetonitrile]
[2]
  IC50: 0.01 to 100 nM
[3]
  IC50: 0.01 to 100 nM

## C[C@@H](OCC1(c2ccc(F)cc2)CCN(C)CC1)c1cc(Cl)cc2cnn(CC#N)c12 [Example 108]
[2]
  IC50: 0.01 to 100 nM
[3]
  IC50: 0.01 to 100 nM

## CN1CCC(CO[C@H](CF)c2cc(Cl)cc3c(Cl)n[nH]c23)(c2ccc(F)cc2)CC1 [Example 109, (S)-3,5-dichloro-7-(2-fluoro-1-((4-(4-fluorophenyl)-1-methylpiperidine-4-yl)methoxy)ethyl)-1H-indazole]
[2]
  IC50: 0.01 to 100 nM
[3]
  IC50: 0.01 to 100 nM

## CN1CCC(COC(CC#N)c2cc(Cl)cc3cn[nH]c23)(c2ccc(F)cc2)CC1 (stereo not shown) [Example 110, 3-(5-chloro-1H-indazol-7-yl)-3-((4-(4-fluorophenyl)-1-methylpiperidine-4-yl)methoxy)propanenitrile]
[2]
  IC50: 0.01 to 100 nM
[3]
  IC50: 0.01 to 100 nM

## CN(C)CC(OCC1(c2ccc(F)cc2)CCNCC1)c1cc(Cl)cc2cn[nH]c12 (stereo not shown) [Example 111, 2-(5-chloro-1H-indazol-7-yl)-2-((4-(4-fluorophenyl)piperidine-4-yl)methoxy)-N,N-dimethylethanamine]
[2]
  IC50: > 300 nM
[3]
  IC50: 0.01 to 100 nM

## CN(C)CC(OCC1(c2ccc(F)cc2)CCN(C)CC1)c1cc(Cl)cc2cn[nH]c12 (stereo not shown) [Example 112, 2-(5-chloro-1H-indazol-7-yl)-2-((4-(4-fluorophenyl)-1-methylpiperidine-4-yl)methoxy)-N,N-dimethylethanamine]
[2]
  IC50: > 300 nM
[3]
  IC50: 100 to 300 nM

## CN1CCC(COC(c2cc(Cl)cc3cn[nH]c23)C(F)F)(c2ccc(F)cc2)CC1 (stereo not shown) [Example 113, 5-chloro-7(2,2-difluoro-1-((4-(4-fluorophenyl)-1-methylpiperidin-4-yl)methoxy)ethyl)-1H-indazole]
[2]
  IC50: 0.01 to 100 nM
[3]
  IC50: 0.01 to 100 nM

## CCC(OCC1(c2ccc(F)cc2)CCNCC1)c1cc(Cl)cc2cn[nH]c12 (stereo not shown) [Example 114, 5-chloro-7-(1-((4-(4-fluorophenyl)piperidin-4-yl)methoxy)propyl)-1H-indazole]
[2]
  IC50: 0.01 to 100 nM
[3]
  IC50: 0.01 to 100 nM

## CCC(OCC1(c2ccc(F)cc2)CCN(C)CC1)c1cc(Cl)cc2cn[nH]c12 (stereo not shown) [Example 115, 5-chloro-7-(1-((4-(4-fluorophenyl)-1-methylpiperidin-4-yl)methoxy)propyl)-1H-indazole]
[2]
  IC50: 0.01 to 100 nM
[3]
  IC50: 0.01 to 100 nM

## C[C@@H](OCC1(c2ccc(F)cc2)CCN(C)CC1)c1cc(Cl)cc2c(Cl)n(CC(F)(F)F)nc12 [Example 116, (R)-3,5-dichloro-7-(1-((4-(4-fluorophenyl-1-methyl)piperidine-4-yl)methoxy)ethyl)-2-(2,2,2-trifluoroethyl)-2H-indazole]
[2]
  IC50: 0.01 to 100 nM
[3]
  IC50: 0.01 to 100 nM

## C[C@@H](OCC1(c2ccccc2)CCN(C)CC1)c1cc(Cl)cc2c(Br)n[nH]c12 [Example 118, (R)-3-bromo-5-chloro-7-(1-((1-methyl-4-phenylpiperidin-4yl)methoxy)ethyl)-1H-indazole]
[2]
  IC50: 0.01 to 100 nM
[3]
  IC50: 0.01 to 100 nM

## C[C@@H](OCC1(c2ccccc2)CCNCC1)c1cc(Cl)cc2c(Cl)n[nH]c12 [Example 119, (R)-3,5-dichloro-7-(1-((4-phenylpiperidin-4yl)methoxy)ethyl)-1H-indazole]
[2]
  IC50: 0.01 to 100 nM
[3]
  IC50: 0.01 to 100 nM

## C[C@@H](OCC1(c2ccccc2)CCN(C)CC1)c1cc(Cl)cc2c(Cl)n[nH]c12 [Example 120, (R)-3,5-dichloro-7-(1-((1-methyl-4-phenylpiperidin-4yl)methoxy)ethyl)-1H-indazole]
[2]
  IC50: 0.01 to 100 nM
[3]
  IC50: 0.01 to 100 nM

## C[C@H](OCC1(c2ccc(F)cc2)CCNCC1)c1cc(Cl)cc2c(Cl)n[nH]c12 [Example 121, (S)-3,5-dichloro-7-(1-((4-(4-fluorophenyl)piperidin-4-yl)methoxy)ethyl)-1h-indazole]
[2]
  IC50: > 300 nM
[3]
  IC50: 0.01 to 100 nM

## C[C@H](OCC1(c2ccc(F)cc2)CCN(C)CC1)c1cc(Cl)cc2c(Cl)n[nH]c12 [Example 122, (S)-3,5-dichloro-7-(1-((4-(4-fluorophenyl)-1-methylpiperidin-4-yl)methoxy)ethyl)-1h-indazole]
[2]
  IC50: > 300 nM
[3]
  IC50: 0.01 to 100 nM

## Cc1cn(C)c2c(C(C)OCC3(c4ccc(F)cc4)CCN(C)CC3)cc(C(F)(F)F)cc12 (stereo not shown) [Example 125, 7-(1-((4-(4-fluorophenyl)-1-methylpiperidin-4-yl)methoxy)ethyl)-1,3-dimethyl-5-(trifluoromethyl)-1H-indole]
[2]
  IC50: 0.01 to 100 nM
[3]
  IC50: 0.01 to 100 nM

## CN1CCC(COCc2cc(Br)cc3ncn(CC4CC4)c23)(c2ccccc2)CC1 [Example 132]
[2]
  IC50: 0.01 to 100 nM
[3]
  IC50: 0.01 to 100 nM

## CCn1cnc2c([C@@H](C)OCC3(c4ccccc4)CCN(C)CC3)cc(C(F)(F)F)cc21 [Example 138, (R)-1-ethyl-4-(1-((1-methyl-4-phenylpiperidin-4-yl)methoxy)ethyl)-6-(trifluoromethyl)-1H-benzo[d]imidazole]
[2]
  IC50: 0.01 to 100 nM
[3]
  IC50: 0.01 to 100 nM

## C[C@@H](O[C@H]1OCCN(Cc2n[nH]c(=O)[nH]2)[C@H]1c1ccc(F)cc1)c1cc(C(F)(F)F)cc(C(F)(F)F)c1 [MK-869]
[1]
  antidepressant activity: Robust antidepressant activity
